Values after ≈ are worked out from the molar mass of the structure shown.
Columns and labels:
HRV 14 = assay: Cytopathic effect (CPE) inhibition assay; type: cell-based, human rhinovirus; details: Human rhinovirus sp., HeLa, 72 h, host cell HeLa, 3 days, MEM/2% FBS, MTT assay; read-out: EC50 HRV 14
[1] = tested on: coxsackievirus B1 (Cox B1); assay: Multicycle cytopathic effect (CPE) reduction assay; type: cell-based; details: Enterovirus B, B1, 72 h, read-out: EC50 CoxB1
[2] = tested on: coxsackievirus B3 (Cox B3); assay: Multicycle cytopathic effect (CPE) reduction assay; type: cell-based; details: Enterovirus B, B3, 72 h, read-out: EC50 CoxB3
HRV 21 = assay: Cytopathic effect (CPE) inhibition assay; type: cell-based, human rhinovirus; details: Human rhinovirus sp., 72 h; host cell HeLa, 3 days, MEM/2% FBS, MTT assay; read-out: EC50 HRV 21
poliovirus 3 (PV3) = assay: microbe, parasite or virus in culture; type: cell-based; details: Enterovirus C, 72 h, read-out: EC50 PV3
[3] = Cytotoxicity (CC50) in multicycle CPE reduction assay, MTS; details: human
in vitro = details: human
HRV 71 = assay: Cytopathic effect (CPE) inhibition assay; type: cell-based, human rhinovirus; details: Human rhinovirus sp., 72 h; host cell HeLa, 3 days, MEM/2% FBS, MTT assay; read-out: EC50 HRV 71

| SMILES | EC50 (HRV 14) [µg/mL] | EC50 [1] [µg/mL] | EC50 [2] [µg/mL] | EC50 (HRV 21) [µg/mL] | EC50 (poliovirus 3 (PV3)) [µg/mL] | CC50 at 3 days [3] [µg/mL] | CC50 (in vitro) [µg/mL] | EC50 (HRV 71) [µg/mL] |
| --- | --- | --- | --- | --- | --- | --- | --- | --- |
| CC(C)c1ccc2c(c1)OC1(O)c3ccccc3C(=O)C21NC(=O)C(=O)CC(=O)c1ccncc1 (stereo not shown) [Example 42, N-(4b-hydroxy-7-isopropyl-10-oxo-4b, 10-dihydro-9bH-indeno[1,2-b]benzofuran-9b-yl)-2,4-dioxo-4-(pyridyn-4-yl)butanamide] | < 10 | < 0.1 | < 0.1 | > 10 | > 10 | > 10 | > 10 | > 10 |
| CC(C)c1ccc2c(c1)OC1(O)c3ccccc3C(=O)C21OC(=O)NCCNC(=O)OC(C)(C)C (stereo not shown) [Example 56, Tert-butyl (4b-hydroxy-7-isopropyl-10-oxo-4b, 10-dihydro-9bH-indeno[1,2-b]benzofuran-9b-yl)ethan-1,2-diyl dicarbamate] | > 10 | < 10 | < 10 | > 10 | > 10 | > 10 | > 10 | > 10 |
| CCCC(=O)C(=O)NC12C(=O)c3ccccc3C1(O)Oc1cc(C(C)C)ccc12 (stereo not shown) [Example 5, N-(4b-hydroxy-7-isopropyl-10-oxo-9b, 10-dihydro-4bH-indeno[1,2-b]benzofuran-9b-yl)-2-oxo pentanamide] | < 0.1 | < 0.01 | < 0.01 | > 8.49 | < 0.1 | > 10 | 8.49 (≈ 21.6 µM) | > 8.49 |
| CC(=O)C(=O)NC12C(=O)c3ccccc3C1(O)Oc1cc(C)c(C)cc12 (stereo not shown) [Example 14, N-(4b-hydroxy-7,8-dimethyl-10-oxo-9b, 10-dihydro-4bH-indeno[1,2-b]benzofuran-9b-yl)-2-oxo propanamide] | 1.82 (≈ 5.18 µM) | 0.015 (≈ 0.0427 µM) | 0.067 (≈ 0.191 µM) | > 8.87 | > 8.57 | 8.57 (≈ 24.4 µM) | 8.87 (≈ 25.2 µM) | > 8.87 |
| CC(C)c1ccc2c(c1)OC1(O)c3ccccc3C(=O)C21NC(N)=S (stereo not shown) [Example 61, 1-(4b-hydroxy-7-isopropyl-10-oxo-4b, 10-dihydro-9bH-indeno[1,2-b]benzofuran-9b-yl)thiourea] | < 10 | < 0.1 | < 1 | > 10 | > 10 | > 10 | > 10 | > 10 |
| Cc1cccc(C)c1NC(=O)C(=O)NC12C(=O)c3ccccc3C1(O)Oc1cc(C(C)C)ccc12 (stereo not shown) [Example 20, N1-(2,6-dimethylphenyl)-N2-(4b-hydroxy-7-isopropyl-10-oxo-4b, 10-dihydro-9bH-indeno[1,2-b]benzofuran-9b-yl)oxal amide] | < 10 | < 0.1 | < 0.1 | > 10 | < 10 | > 10 | > 10 | > 10 |
| COc1cc(C(=O)C(=O)NC23C(=O)c4ccccc4C2(O)Oc2cc(C(C)C)ccc23)cc(OC)c1OC (stereo not shown) [Example 23, N-(4b-hydroxy-7-isopropyl-10-oxo-4b, 10-dihydro-9bH-indeno[1,2-b]benzofuran-9b-yl)-2-oxo-2-(3,4,5-trimethoxyphenyl)acetamide] | < 10 | < 0.1 | < 0.1 | > 10 | < 10 | > 10 | > 10 | > 10 |
| CCCNC(=O)OC12C(=O)c3ccccc3C1(O)Oc1cc(C(C)C)ccc12 (stereo not shown) [Example 18, 4b-hydroxy-7-isopropyl-10-oxo-4b, 10-dihydro-9bH-indeno[1,2-b]benzofuran-9b-yl propyl carbamate] | > 10 | < 10 | < 10 | > 10 | > 10 | > 10 | > 10 | > 10 |
